Measured values: paper PMC12207908, “The broad‐spectrum antimicrobial peptide BMAP‐27B potentiates carbapenems against NDM‐producing pathogens in food animals” (mLife, 2025)
No end group written: not given here.

Experiments:
[1] = test system: bacterial suspension; assay: Antimicrobial activity in varying concentrations of proteases and serum; type: in vitro ADME; conditions: trypsin or proteinase K, 1:1 (v/v) incubation 1 h, diluted to 2×MIC, then 18-24 h at 37℃ with bacteria (Figure S1)
Protocol: The above mixture was added to the bacterial suspension and incubated at 37℃ for 18-24 hours. Finally, the absorbance of […] was measured and used to calculate the survival rate of bacteria.

[2] = test system: Acinetobacter baumannii; type: cell-based
Protocol: The MIC of BMAP‐27B and other antibiotics was determined using the broth microdilution method, following the guidelines established by the Clinical and Laboratory Standards Institute (CLSI). Briefly, the bacterial cultures were grown to the logarithmic growth phase and subsequently diluted in Mueller–Hinton broth (MHB) to achieve a final concentration of 1 × 10^6 CFU/ml. BMAP‐27B and the other antibiotics were prepared in twofold serial dilutions in MHB and mixed with an equal volume of bacterial suspension in 96‐well polypropylene microtiter plates.

[3] = test system: CREC6 and CRKP2; type: in vitro ADME, Escherichia coli and Klebsiella pneumoniae
Protocol: (§1) The antibacterial activity of the treated peptide was determined using CREC6 and CRKP2 as models. Bacterial colony survival was quantified by measuring the absorbance at 600 nm using a microplate reader. The activity of the peptide was also determined in the presence of NaCl to assess its salt sensitivity, with a final NaCl concentration of 400 mM. […] The bactericidal efficacy of BMAP‐27B against bacteria in SIF or SGF was evaluated using the plate counting method at different time points.

[4] = type: binding; conditions: pH 7.4
Protocol: The detailed steps of molecular docking are provided in the Supporting Information. Microcalorimetric experiments were conducted to examine the interaction between BMAP‐27B and the divalent cation zinc (Zn^2+) using ITC to determine the binding affinity of BMAP‐27B for Zn^2+. Both BMAP‐27B and Zn^2+ were dissolved in PBS (pH 7.4). Before the experiment, all samples were degassed in a sonication bath for 10 min. At 25°C, Zn^2+ was sequentially injected into the calorimetric cell containing BMAP‐27B, with a total of 25 injections performed, allowing for a 180‐s equilibration interval between injections. The resulting data were analyzed using software to calculate K d.

[5] = test system: BALB/c mice; assay: In vivo biocompatibility; conditions: 5, 10, and 20 mg/kg intraperitoneal, once daily
Protocol: Male BALB/c mice (6–8 weeks of age, 18 ± 2 g) were purchased from Tengxin Biotechnology Co., Ltd., for the animal studies. Healthy male BALB/c mice were randomly divided into four groups, with six mice per group. Mice in the three experimental groups received intraperitoneal injections of peptide solutions at doses of 5, 10, and 20 mg/kg, while the control group received injections of PBS. Injections were administered once daily for five consecutive days, and the body weight of each mouse was recorded daily. On the sixth day, the mice were euthanized under deep anesthesia and blood samples were collected for biochemical analysis, including AST, CREA, UREA, and ALT. The livers and kidneys were subsequently weighed, fixed in 4% paraformaldehyde, and subjected to histopathological examination using H&E staining.

[6] = test system: CREC6; type: in vitro ADME, Escherichia coli
Protocol: as §1

## GRFKRLRKKLKKLFKKLSPVIPLLHLG [BMAP-27B]
[1]
  protease concentration resulting in loss of activity: above 200 μg/ml
[2]
  MIC: ≤ 6.250 µg/mL
[3]
  efficacy after co‐incubation with fetal bovine serum: maintained considerable efficacy
[4]
  Kd: 31.36 µM
[5]
  relative weights of the heart, liver, spleen, and kidneys: no significant differences
[6]
  activity in simulated intestinal fluid (SIF): no activity
  viable bacterial count after incubation with simulated gastric fluid (SGF): lower than that of the control group
